Results taken from US8546376B2, “Pharmaceutical compounds” (Almac Discovery Limited, priority 2009, dated 2013).
Where a name gives a salt, the structure may show the parent alone.

Columns and labels:
AKT3 = molecular target: T1, AKT3 (Homo sapiens, UniProt Q9Y243); assay: AKT Kinase Assay (IMAP fluorescent polarisation) vs AKT3; assay type: biochemical; conditions: activated AKT3, FAM Crosstide substrate
T1 construct: purchased SignalChem
Method in brief: (§1)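 IC50 values came from non-linear regression of % inhibition relative to vehicle, measured by IMAP fluorescence polarisation (485/528 nm) after a 1 h room-temperature reaction of FAM-Crosstide and ATP. Each activated isoform was first exposed to compound for 45 min across fourteen half-log doses.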

AKT2 = molecular target: T2, AKT2 (Homo sapiens, UniProt P31751); assay: AKT Kinase Assay (IMAP fluorescent polarisation) vs AKT2; assay type: biochemical; conditions: activated AKT2, FAM Crosstide substrate
T2 construct: purchased SignalChem
T2 sequence (P31751 whole entry): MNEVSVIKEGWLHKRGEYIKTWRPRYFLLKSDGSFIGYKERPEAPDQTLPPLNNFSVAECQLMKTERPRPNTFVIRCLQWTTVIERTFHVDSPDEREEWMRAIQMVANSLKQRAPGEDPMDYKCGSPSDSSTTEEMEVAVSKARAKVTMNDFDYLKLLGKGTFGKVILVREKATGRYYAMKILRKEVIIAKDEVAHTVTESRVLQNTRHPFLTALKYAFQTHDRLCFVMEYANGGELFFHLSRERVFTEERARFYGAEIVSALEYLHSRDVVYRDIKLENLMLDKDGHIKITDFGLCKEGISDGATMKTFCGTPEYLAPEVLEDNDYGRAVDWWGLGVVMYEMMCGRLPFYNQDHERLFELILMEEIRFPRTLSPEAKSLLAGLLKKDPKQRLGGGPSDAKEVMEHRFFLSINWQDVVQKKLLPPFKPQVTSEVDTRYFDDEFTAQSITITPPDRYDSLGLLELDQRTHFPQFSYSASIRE
Method in brief: as §1

AKT1 = molecular target: T3, AKT1 (Homo sapiens, UniProt P31749); assay: AKT Kinase Assay (IMAP fluorescent polarisation) vs AKT1; assay type: biochemical; conditions: activated AKT1, FAM Crosstide substrate
T3 construct: purchased SignalChem
T3 sequence (P31749 whole entry): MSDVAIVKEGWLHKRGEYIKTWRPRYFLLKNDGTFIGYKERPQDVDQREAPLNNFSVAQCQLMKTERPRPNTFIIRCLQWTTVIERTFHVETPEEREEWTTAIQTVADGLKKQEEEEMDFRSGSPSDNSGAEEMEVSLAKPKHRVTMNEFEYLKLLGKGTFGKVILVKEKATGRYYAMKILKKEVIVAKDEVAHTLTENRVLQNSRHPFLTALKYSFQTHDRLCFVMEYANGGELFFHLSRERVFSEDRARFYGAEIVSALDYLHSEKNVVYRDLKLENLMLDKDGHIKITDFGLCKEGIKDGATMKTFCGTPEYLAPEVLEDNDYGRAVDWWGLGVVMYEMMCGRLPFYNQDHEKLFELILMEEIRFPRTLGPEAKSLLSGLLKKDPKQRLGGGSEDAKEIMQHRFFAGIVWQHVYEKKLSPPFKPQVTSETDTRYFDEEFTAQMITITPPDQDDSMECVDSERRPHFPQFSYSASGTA
Method in brief: as §1

[1] = test system: PC3 and/or LnCaP cell lines; assay: In vitro cell proliferation assay (Cell Titre Glo); assay type: cell-based; conditions: Homo sapiens, 72 hours, read-out: inhibition of proliferation IC50
Procedure: Testing of the compounds was also performed using in vitro cell proliferation assays:
Cell Titre Glo (Promega) is a highly sensitive homogeneous reagent used to determine the viability of cells. The reagent uses a stable form of luciferase to measure ATP as an output of viability. The luminescent values generated in the assay are directly proportional to the number of viable cells in your assay.
The following materials were used: White, clear bottomed 96 well assay plates (Costar); Cell titre Glo reagents; LnCaP (ECACC) cells grown in RPMI medium (Invitrogen) supplemented with 10 mM HEPES (Invitrogen), 1 mM Sodium pyruvate (Invitrogen), 2 mM L-Glutamine (Invitrogen) and 10% Foetal calf serum (Invitrogen); PC3 (ECACC) cells grown in RPMI medium supplemented with 10% Foetal calf serum (Invitrogen); Trypsin (Invitrogen); PBS (Invitrogen); Biotek Synergy 4 Hybrid Plate reader; 96 well plate shaker (Stuart SSL5); Eppendorf 5414 desk-top centrifuge; Beckman Coulter cell counter Z1 single threshold system.
Prostate cell lines, PC3 and LnCaP, were washed, detached and re-suspended in their respective fresh media. The cells were pelleted by centrifugation (Eppendorf 5414) and spent supernatant discarded. The cells were re-suspended by vortex mixing, counted and seeded into clear bottom white 96 well plates at a density of 5000 cells per well. The cells were incubated (Sanyo) overnight at 37° C. ([…]), and next day treated with increasing concentrations of test compound formulated in fresh medium. The plates were returned to the incubator for 72 hours. […]
The cell viability post compound treatment was determined by the luminescent intensity emitted from the drug treated wells in the plate. In brief, the assay plate was placed in the Biotex Synergy 4 Hybrid plate reader and the luminescence read in each well. The compound treated wells were compared to vehicle treated wells and the % inhibition of cell viability calculated.
The data was analysed using GraphPad Prism, with IC50 values generated using non-linear regression of the data set.

AKT phosphorylation = assay: Phosphorylation status of AKT/PI3K pathway members via western blotting; assay type: cell-based; conditions: for 48 h at 10 μM
Source text: Analysis of Compound Effects on AKT Signalling Pathways
Phosphorylation status of various members of the AKT/PI3K pathway were investigated via western blotting.
Materials Required for this Assay: 20× Running buffer (Invitrogen); Rainbow marker ladder (GE Healthcare); Reducing buffer (Invitrogen); 20× Transfer buffer (Invitrogen); 4-12% Bis-Tris Gels (Invitrogen); Filter paper (Whatman); Nitrocellulose (Amersham); ECL plus detection reagents (GE Healthcare); Radiographic film (Kodak); Biorad Protein determination reagent (Biorad); AKT pathway signalling antibodies (Cell Signalling)
LnCaP and PC3 cell lines were washed, detached and re-suspended in fresh medium. They were seeded in 90 mm^2 dishes and incubated overnight ([…]/5% CO2) to allow adherence. […]
The medium was removed and the cells placed on ice and washed in PBS. […] The resultant supernatant was assayed for protein content using the Bradford method (Biorad) and equal quantities of protein calculated and heated in sample reducing buffer to 95° C. for ten minutes. […]
The membranes were used to determine difference in total AKT, pSer473 AKT, pGSK3β and total GSK3β (all sourced from Cell Signalling). […] The membranes were washed three times in PBS and incubated with the respective secondary antibodies (Sigma Aldrich) for two hours and the proteins were detected using ECL plus detection reagents (GE Healthcare).

T1 sequence (Q9Y243 whole entry): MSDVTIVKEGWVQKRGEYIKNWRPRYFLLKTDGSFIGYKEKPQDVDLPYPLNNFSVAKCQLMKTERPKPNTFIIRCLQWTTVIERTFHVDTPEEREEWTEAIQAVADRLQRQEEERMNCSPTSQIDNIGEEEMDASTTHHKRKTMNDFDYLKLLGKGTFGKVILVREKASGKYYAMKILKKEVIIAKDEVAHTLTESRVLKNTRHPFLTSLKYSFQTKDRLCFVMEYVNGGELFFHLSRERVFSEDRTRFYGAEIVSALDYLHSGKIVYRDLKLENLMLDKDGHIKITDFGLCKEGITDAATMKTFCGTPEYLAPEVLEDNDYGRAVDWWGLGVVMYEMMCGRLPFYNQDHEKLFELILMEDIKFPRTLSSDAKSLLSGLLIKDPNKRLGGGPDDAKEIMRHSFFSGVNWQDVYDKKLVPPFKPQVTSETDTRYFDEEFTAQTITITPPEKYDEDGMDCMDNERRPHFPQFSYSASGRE

SMILES | IC50 (AKT3) [nM] | IC50 (AKT2) [nM] | IC50 (AKT1) [nM] | IC50 [1] [nM] | inhibition of AKT phosphorylation (AKT phosphorylation)
COc1ccc2c(=O)c(-c3ccc(C4(N)CCC4)cc3)c(-c3ccccc3)oc2c1OC [Example 4, 3-[4-(1-Amino-cyclobutyl)-phenyl]-7,8-dimethoxy-2-phenyl-chromen-4-one] | > 10000 | ≤ 1000 | 1000 to 10000 | < 10000 | –
CN1CCN(c2ccc3oc(-c4ccccc4)c(-c4ccc(C5(N)CCC5)cc4)c(=O)c3c2)CC1 [Example 20, 3-[4-(1-Amino-cyclobutyl)-phenyl]-6-(4-methyl-piperazin-1-yl)-2-phenyl-chromen-4-one] | > 10000 | ≤ 1000 | 1000 to 10000 | – | inhibition of AKT phosphorylation
Cl.NC1(c2ccc(-c3c(-c4ccccc4)oc4c(=O)[nH]ccc4c3=O)cc2)CCC1 [Example 40, 3-[4-(1-Amino-cyclobutyl)-phenyl]-2-phenyl-7H-pyrano[2,3-c]pyridine-4,8-dione hydrochloride] | 1000 to 10000 | ≤ 1000 | ≤ 1000 | < 10000 | inhibition of AKT phosphorylation
NC1(c2ccc(-c3c(-c4ccccc4)oc4c(cc(Cl)c5nc[nH]c54)c3=O)cc2)CCC1 [Example 44, 7-[4-(1-Amino-cyclobutyl)-phenyl]-4-chloro-8-phenyl-1H-chromeno[7,8-d]imidazol-6-one] | ≤ 1000 | ≤ 1000 | ≤ 1000 | < 10000 | –
NC1(c2ccc(-c3c(-c4ccccc4)oc4c(-c5ccc(C6(N)CCC6)cc5)nccc4c3=O)cc2)CCC1 [Example 113, 3,8-bis(4-(1-aminocyclobutyl)phenyl)-2-phenyl-4H-pyrano[2,3-c]pyridin-4-one] | > 10000 | > 10000 | ≤ 1000 | – | –
NC1(c2ccc(-c3c(-c4ccccc4)oc4c(-n5ccnc5)nccc4c3=O)cc2)CCC1 [Example 114, 3-(4-(1-aminocyclobutyl)phenyl)-8-(1H-imidazol-1-yl)-2-phenyl-4H-pyrano[2,3-c]pyridin-4-one] | > 10000 | 1000 to 10000 | ≤ 1000 | – | –
Cc1nn(C)c(C)c1-c1nccc2c(=O)c(-c3ccc(C4(N)CCC4)cc3)c(-c3ccccc3)oc12 [Example 115, 3-(4-(1-aminocyclobutyl)phenyl)-2-phenyl-8-(1,3,5-trimethyl-1H-pyrazol-4-yl)-4H-pyrano[2,3-c]pyridin-4-one] | > 10000 | 1000 to 10000 | > 10000 | – | –
Cc1c(-c2nccc3c(=O)c(-c4ccc(C5(N)CCC5)cc4)c(-c4ccccc4)oc23)cnn1C [Example 116, 3-(4-(1-aminocyclobutyl)phenyl)-8-(1,5-dimethyl-1H-pyrazol-4-yl)-2-phenyl-4H-pyrano[2,3-c]pyridin-4-one] | 1000 to 10000 | 1000 to 10000 | ≤ 1000 | – | –
CC(C)Cn1cc(-c2nccc3c(=O)c(-c4ccc(C5(N)CCC5)cc4)c(-c4ccccc4)oc23)cn1 [Example 117, 3-(4-(1-aminocyclobutyl)phenyl)-8-(1-isobutyl-1H-pyrazol-4-0)-2-phenyl-4H-pyrano[2,3-c]pyridin-4-one] | 1000 to 10000 | ≤ 1000 | ≤ 1000 | – | –
COc1ccccc1-c1nccc2c(=O)c(-c3ccc(C4(N)CCC4)cc3)c(-c3ccccc3)oc12 [Example 118, 3-(4-(1-aminocyclobutyl)phenyl)-8-(2-methoxyphenyl)-2-phenyl-4H-pyrano[2,3-c]pyridin-4-one] | 1000 to 10000 | 1000 to 10000 | ≤ 1000 | – | –
CS(=O)(=O)c1ccccc1-c1nccc2c(=O)c(-c3ccc(C4(N)CCC4)cc3)c(-c3ccccc3)oc12 [Example 119, 3-(4-(1-aminocyclobutyl)phenyl)-8-(2-(methylsulfonyl)phenyl)-2-phenyl-4H-pyrano[2,3-c]pyridin-4-one] | > 10000 | 1000 to 10000 | 1000 to 10000 | – | –
Cc1nccc2c(=O)c(-c3ccc(C4(N)CCC4)cc3)c(-c3ccccc3)oc12 [Example 120, 3-(4-(1-aminocyclobutyl)phenyl)-8-methyl-2-phenyl-4H-pyrano[2,3c]pyridin-4-one] | > 10000 | 1000 to 10000 | 1000 to 10000 | – | –
NC1(c2ccc(-c3c(-c4ccccc4)oc4c(-c5cccc(F)c5C(=O)O)nccc4c3=O)cc2)CCC1 [Example 121, 2-(3-(4-(1-aminocyclobutyl)phenyl)-4-oxo-2-phenyl-4H-pyrano[2,3-c]pyridin-8-yl)-6-fluorobenzoic acid] | > 10000 | > 10000 | 1000 to 10000 | – | –
N#Cc1cccc(-c2nccc3c(=O)c(-c4ccc(C5(N)CCC5)cc4)c(-c4ccccc4)oc23)c1 [Example 122] | > 10000 | ≤ 1000 | ≤ 1000 | – | –

Now from value to compound, other results behind:

IC50 (AKT3) [nM] | IC50 (AKT2) [nM] | IC50 (AKT1) [nM] | IC50 [1] [nM] | SMILES | inhibition of AKT phosphorylation (AKT phosphorylation)
1000 to 10000 | ≤ 1000 | ≤ 1000 | – | NC1(c2ccc(-c3c(-c4ccccc4)oc4c(-c5cccnc5)nccc4c3=O)cc2)CCC1 [Example 123, 3-(4-(1-aminocyclobutyl)phenyl)-2-phenyl-8-(pyridin-3-yl)-4H-pyrano[2,3-c]pyridin-4-one hydrochloride] | –
1000 to 10000 | 1000 to 10000 | ≤ 1000 | – | NC1(c2ccc(-c3c(-c4ccccc4)oc4c(-c5ccccc5)nccc4c3=O)cc2)CCC1 [Example 124, 3-(4-(1-aminocyclobutyl)phenyl)-2,8-diphenyl-4H-pyrano[2,3-c]pyridin-4-one] | –
> 10000 | 1000 to 10000 | ≤ 1000 | – | NC1(c2ccc(-c3c(-c4ccccc4)oc4c(OCCO)nccc4c3=O)cc2)CCC1 [Example 125, 3-(4-(1-aminocyclobutyl)phenyl)-8-(2-hydroxyethoxy)-2-phenyl-4H-pyrano[2,3-c]pyridin-4-one] | –
> 10000 | 1000 to 10000 | ≤ 1000 | – | NC1(c2ccc(-c3c(-c4ccccc4)oc4c(C5CC5)nccc4c3=O)cc2)CCC1 [Example 126, hydrochloride] | –
> 10000 | 1000 to 10000 | ≤ 1000 | – | N#Cc1nccc2c(=O)c(-c3ccc(C4(N)CCC4)cc3)c(-c3ccccc3)oc12 [Example 127, 3-(4-(1-aminocyclobutyl)phenyl)-4-oxo-2-phenyl-4H-pyrano[2,3-c]pyridine-8-carbonitrile] | –
> 10000 | 1000 to 10000 | ≤ 1000 | – | CCc1nccc2c(=O)c(-c3ccc(C4(N)CCC4)cc3)c(-c3ccccc3)oc12 [Example 128, 3-(4-(1-aminocyclobutyl)phenyl)-8-ethyl-2-phenyl-4H-pyrano[2,3-c]pyridin-4-one] | –
1000 to 10000 | ≤ 1000 | ≤ 1000 | – | NC1(c2ccc(-c3c(-c4ccccc4)oc4c(CCCl)nccc4c3=O)cc2)CCC1 [Example 129, 3-(4-(1-aminocyclobutyl)phenyl)-8-(2-chloroethyl)-2-phenyl-4H-pyrano[2,3-c]pyridin-4-one] | –
